# Test results published in patent US8178579B2, “Dioxanes and uses thereof” (President and Fellows of Harvard College, priority 2001, dated 2012).
# Experiments:
# α-tubulin deacetylation = conditions: cited from earlier work
# [1] = test system: α-tubulin acetylation in the presence of ITSA1; conditions: cited from earlier work
# HDAC1 = biological target: T1, HDAC1 (Homo sapiens, UniProt Q13547); assay: HDAC assay, [3H]acetate-incorporated histones with immunoprecipitated FLAG-tagged HDAC1; assay type: biochemical; conditions: calculated IC50, data in duplicate, at least two experiments; read-out: IC50 against HDAC1
# T1 construct: made in house; host or cells: TAg-Jurkat cells, transient transfection, then immunoprecipitation
# Protocol: (§1) Cell culture and Transfections. TAg-Jurkat cells were transfected by electroporation with 5 μg of FLAG-epitope-tagged pBJ5 constructs (as described in ref. 5c) for expression of recombinant proteins. Cells were harvested 48 h posttransfection.
# HDAC assays. [^3H]Acetate-incorporated histones were isolated from butyrate-treated HeLa cells by hydroxyapatite chromatography (as described in Tong, et al. Nature 1997, 395, 917-921.) Immunoprecipitates were incubated with 1.4 μg (10,000 dpm) histones for 3 h at 37° C. HDAC activity was determined by scintillation counting of the ethyl acetate-soluble [^3H]acetic acid (as described in Taunton, et al., Science 1996, 272, 408-411). Compounds were added in DMSO such that final assay concentrations were 1% DMSO. IC50s were calculated using Prism 3.0 software. Curve fitting was done without constraints using the program's Sigmoidal-Dose Response parameters. All data points were acquired in duplicate and IC50s are calculated from the composite results of at least two separate experiments.
# [2] = test system: cyclin B degradation pathway; assay: Xenopus laevis oocyte extract assay of cyclin B degradation; conditions: 4 μL assay volume
# Text: (§2) Biologically active 1,3-dioxanes have been identified in phenotypic assays in cell culture, zebrafish, and Xenopus laevis oocyte extract (FIG. 22).
# cyclin B degradation = cyclin B degradation assay in HeLa cells; assay type: cell-based; conditions: 30 μL assay volume
# Text: as §2
# HDAC6 = biological target: T2, HDAC6 (Homo sapiens, UniProt Q9UBN7); assay: HDAC assay, [3H]acetate-incorporated histones with immunoprecipitated FLAG-tagged HDAC6 (HDAC6F); assay type: biochemical; design: made in house; host or cells: TAg Jurkat cells, transient transfection, anti-FLAG M2 immunoprecipitation; conditions: calculated IC50, data in duplicate, at least two experiments; read-out: IC50 against HDAC6
# T2 sequence (Q9UBN7 1-1215): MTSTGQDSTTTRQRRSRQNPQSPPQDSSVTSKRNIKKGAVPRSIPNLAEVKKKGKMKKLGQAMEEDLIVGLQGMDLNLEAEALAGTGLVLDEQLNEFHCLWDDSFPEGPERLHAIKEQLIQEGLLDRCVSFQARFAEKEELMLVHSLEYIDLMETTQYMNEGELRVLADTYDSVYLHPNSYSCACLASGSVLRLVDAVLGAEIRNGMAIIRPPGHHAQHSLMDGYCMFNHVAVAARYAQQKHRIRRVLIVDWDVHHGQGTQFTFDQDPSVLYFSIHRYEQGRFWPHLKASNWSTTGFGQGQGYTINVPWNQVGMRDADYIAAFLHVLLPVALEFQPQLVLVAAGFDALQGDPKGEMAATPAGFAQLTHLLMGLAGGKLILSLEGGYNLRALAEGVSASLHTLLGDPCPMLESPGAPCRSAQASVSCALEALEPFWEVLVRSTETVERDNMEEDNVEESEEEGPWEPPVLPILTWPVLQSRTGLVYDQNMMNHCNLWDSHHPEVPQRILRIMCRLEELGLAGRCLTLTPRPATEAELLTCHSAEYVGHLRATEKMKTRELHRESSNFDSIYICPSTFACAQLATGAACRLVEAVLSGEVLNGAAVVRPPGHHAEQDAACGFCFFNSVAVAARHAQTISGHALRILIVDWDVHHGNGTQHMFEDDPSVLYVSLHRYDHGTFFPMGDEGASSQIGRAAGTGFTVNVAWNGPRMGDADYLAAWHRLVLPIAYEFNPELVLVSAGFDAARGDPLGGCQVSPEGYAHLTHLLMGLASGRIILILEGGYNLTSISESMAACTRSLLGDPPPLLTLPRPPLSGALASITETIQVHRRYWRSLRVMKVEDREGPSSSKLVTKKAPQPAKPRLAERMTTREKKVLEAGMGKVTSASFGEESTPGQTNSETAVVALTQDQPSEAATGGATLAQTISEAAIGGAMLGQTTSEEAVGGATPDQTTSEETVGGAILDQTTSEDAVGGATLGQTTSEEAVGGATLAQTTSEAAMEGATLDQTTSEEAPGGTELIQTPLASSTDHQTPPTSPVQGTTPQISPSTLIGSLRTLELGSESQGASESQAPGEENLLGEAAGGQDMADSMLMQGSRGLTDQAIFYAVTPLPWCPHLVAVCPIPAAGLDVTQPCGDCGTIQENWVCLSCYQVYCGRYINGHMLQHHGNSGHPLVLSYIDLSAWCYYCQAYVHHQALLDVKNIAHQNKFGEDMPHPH
# Protocol: as §1
# HDAC assays. […] Compounds were added in DMSO such that final assay concentrations were 1% DMSO. IC50s were calculated using Prism 3.0 software. Curve fitting was done without constraints using the program's Sigmoidal-Dose Response parameters. All data points were acquired in duplicate and IC50s are calculated from the composite results of at least two separate experiments.
# Tubulin and MAPs were isolated from bovine brain as described [See http://mitchison.med.harvard.edu/protocols/tubprep.html]. Whole brain and fractions from phosphocellulose chromatography were blotted for HDAC6 and acetylated α-tubulin. Cultured hippocampal neurons from dissociated 1-day old rat brains were transfected with an enhanced green fluorescent protein (EGFP)-actin construct at 4-5 days using the calcium phosphate method [E. N. Star, D. J. Kwiatkowski and V. N. Murthy, Nat. Neurosci. […] K. Miranti and M. E. Greenberg, J. Neurosci. […] Transfected cultures were allowed to grow for at least 48 h before the addition of experimental compounds.
# [^3H]Acetate-incorporated histones were isolated from butyrate-treated HeLa cells as described [J. Taunton, C. […] Immunoprecipitates were incubated with acetylated histones and HDAC activity determined by scintillation counting as described [J. Taunton, C. […] TDAC assays were performed with immunoprecipitates using MAP-stabilized microtubules polymerized from MAP-rich tubulin fraction as described [C. […] Reactions were incubated (2 h) at 37° C., then incubated on ice (15 min).
# human FKBP12 = human FKBP12 (Homo sapiens, UniProt P62942); assay: small molecule microarray protein-binding assay; conditions: labeled protein
# Protocol: In addition to phenotypic assays, over fifty protein-binding assays have been performed with the 1,3-dioxane library using small molecule microarrays (MacBeath et al. J. Am. Chem. Soc. 1999, 121, 7967-7968; Peterson et al. Proc. Natl. Acad. Sci. U.S.A. 2000, 97, 12965-12969). The microarrays were constructed by covalent attachment of […] of each stock solution to a glass slide using a contact printing robot. Labeled proteins were used to probe the microarray for small molecule partners.
# T1 sequence (Q13547 whole entry): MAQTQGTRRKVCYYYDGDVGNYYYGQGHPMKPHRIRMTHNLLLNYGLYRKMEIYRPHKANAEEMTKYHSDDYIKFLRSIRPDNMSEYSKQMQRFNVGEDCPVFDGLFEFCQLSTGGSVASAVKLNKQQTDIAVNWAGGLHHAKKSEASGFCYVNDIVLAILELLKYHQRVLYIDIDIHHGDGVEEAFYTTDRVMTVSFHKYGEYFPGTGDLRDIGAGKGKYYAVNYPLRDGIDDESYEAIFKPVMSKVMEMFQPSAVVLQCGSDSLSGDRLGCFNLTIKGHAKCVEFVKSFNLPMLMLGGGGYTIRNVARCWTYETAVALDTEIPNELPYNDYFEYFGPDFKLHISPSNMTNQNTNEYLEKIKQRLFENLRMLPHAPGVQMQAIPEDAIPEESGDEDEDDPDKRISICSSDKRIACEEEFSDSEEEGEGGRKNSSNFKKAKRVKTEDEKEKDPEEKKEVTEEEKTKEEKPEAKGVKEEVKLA
# human FKBP12, sequence (P62942 whole entry): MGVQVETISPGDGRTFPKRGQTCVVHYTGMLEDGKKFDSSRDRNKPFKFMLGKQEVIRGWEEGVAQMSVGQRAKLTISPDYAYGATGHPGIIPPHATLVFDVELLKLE
compound,measurement,setting,value
"CC(=O)O[C@H]1C(=O)[C@@]2(C)[C@H]([C@H](OC(=O)c3ccccc3)[C@]3(O)C[C@H](OC(=O)[C@H](O)[C@@H](NC(=O)c4ccccc4)c4ccccc4)C(C)=C1C3(C)C)[C@]1(OC(C)=O)CO[C@@H]1C[C@@H]2O [taxol, Paclitaxel]","effect on α-tubulin acetylation, stated as known",α-tubulin deacetylation,increases α-tubulin acetylation due to direct stabilization of microtubules
same,"suppression by ITSA1, stated as known",[1],is not suppressed by ITSA1
"C[C@H]1[C@@H](CN2CCC3(CC2)OCCO3)OC(c2cccc(NS(=O)(=O)c3ccccc3)c2)O[C@H]1c1ccc(CO)cc1 (mixture of isomers) [compound 10, (±)-N-[3-[(4S,5R,6R)-4-(1,4-dioxa-8-azaspiro[4.5]dec-8-ylmethyl)-6-[4-(hydroxymethyl)phenyl]-5-methyl-1,3-dioxan-2-yl]phenyl-benzenesulfonamide]",IC50,HDAC1,~1000 nM
same,activity in Xenopus laevis oocyte extract cyclin B degradation assay,[2],Neither set of compounds was active in both assay systems
same,activity in HeLa cell cyclin B degradation assay,cyclin B degradation,inhibitory activity
same,IC50,HDAC6,~1000 nM
"(αS)-2-acetyloxy)-N-[[4-[(4R,5S,6S)-4-[4-(hydroxymethyl)phenyl]-6-[[4,5-d]phenyl-2-oxazolyl)thio]methyl]61,3-dioxan-2-yl]phenyl]methyl-propionamide [compound 14]",binding to human FKBP12 on small molecule microarray,human FKBP12,bind to human FKBP12
